US20080064668A1, “1,3-Diacylated, 26,27-Alkyl/Haloakyl Vitamin D3 Compounds and Methods of Use Thereof” (BioXell S.p.A., priority 2003, published 2008)
“Also recorded” adds a separate entry of the source.

Columns and labels:
ECV = experiment: Proliferation assay using bladder cancer cell lines, ECV; assay type: cell-based, human; conditions: 72 h culture, CyQuant proliferation assay
RT112 = experiment: Proliferation assay using bladder cancer cell lines, RT112; assay type: cell-based, human; conditions: 72 h culture, CyQuant proliferation assay
Experimental: (§1) Bladder cancer cell lines (T24, RT112, HT1376 and RT4 are human bladder cancer cell lines; NHEK are normal human keratinocytes) were obtained from the European Collection of Cell Cultures (Salisbury, UK). Cells were plated at 3×10^3 per well, in flat bottomed 96-well plates in 100 μl of DMEM medium containing: 5% Fetal Clone I, 50 μg/l gentamicin, 1 mM sodium pyruvate and 1% non-essential amino acids. After culturing for 24 h at 37° C. in 5% CO2, to allow cells to adhere to the plates, VDR ligands (compounds (2), (4), (5) and other vitamin D3 analogs as shown in Table 4) were added at concentrations ranging from 100 μM to 0.3 μM in 100 μl of above-mentioned complete medium. After a further 72 h of culture, cell proliferation was measured using a fluorescence-based proliferation assay kit. (CyQuant Cell Proliferation Assay Kit, Molecular Probes, Eugene, Oreg., USA). The IC50 was calculated from the regression curve of the titration data.

HT 1376 = experiment: Proliferation assay using bladder cancer cell lines, HT1376; assay type: cell-based, human; conditions: 72 h culture, CyQuant proliferation assay
Experimental: as §1

RT4 = experiment: Proliferation assay using bladder cancer cell lines, RT4; assay type: cell-based, human; conditions: 72 h culture, CyQuant proliferation assay
Experimental: as §1

NHEK = experiment: Proliferation assay, NHEK normal human keratinocytes; assay type: cell-based; conditions: 72 h culture, CyQuant proliferation assay
Experimental: as §1

Human BPH cells = experiment: BPH cell proliferation assay (testosterone-induced); assay type: cell-based; conditions: 48 h
Experimental: Human BPH cells, prepared, maintained and used as previously described in Crescioli C, et al. Journal of Clinical and Endocrinology Metabolism (2000) 85 p 2576-2583, were obtained from prostate tissues derived from 5 patients, who underwent suprapubic adenomectomy for BPH, after informed consent and approval by the Local Ethical Committee.
For all cell proliferation assays, 4×10^4 BPH cells were seeded onto 12-well plates in their growth medium, starved in red- and serum-free medium containing 0.1% BSA for 24 h, and then treated with specific stimuli for 48 h. Cells in phenol red- and serum-free medium containing 0.1% BSA were used as controls. Thereafter, cells were trypsinized, and each experimental point was derived from hemocytometer counting, averaging at least six different fields for each well, as previously reported (see Crescioli C, et al. Journal of Clinical and Endocrinology Metabolism (2000) 85 p 2576-2583).
Growth assays were also carried out using a fixed concentration of androgens (10 nM) with or without vitamin-D analogs (1 nM, 10 nM) or the anti-androgens finasteride (F, 1 nM) and cyproterone acetate (Cyp, 100 nM. Growth assays were also performed using a fixed concentration of T (10 nM) or GFs (10 ng/ml) with or without the vitamin-D analogs. (10 nM).
In the same experiment, each experimental point was repeated in triplicate or quadruplicate and experiments were performed 3 times. Results are expressed as % variation (mean±SEM) over the maximal T or GF-induced stimulation.

[1] = MTD in CD1 mouse (highest non-hypercalcemic dose); conditions: in vivo
[2] = Determination of Maximum Tolerated Dose (MTD); conditions: for MTD at 4 days: female, C57BL/6, mouse, in vivo, po; for MTD compared with the corresponding dihydroxy (parent) compound: versus (1) or (3)
Experimental: The maximum tolerated dose of the vitamin D3 compounds of the invention were determined in eight week-old female C57BL/6 mice (3 mice/group) dosed orally (0.1 ml/mouse) with various concentrations of Vitamin D3 analogs daily for four days. Analogs were formulated in miglyol for a final concentration of 0.01, 0.03, 0.1 0.3, 1, 3, 10, 30, 100 and 300 μg/kg when given at 0.1 ml/mouse p.o. daily. Blood for serum calcium assay was drawn by tail bleed on day five, the final day of the study.

IFN-γ production = IFN-γ production in the mixed leukocyte response (MLR); assay type: cell-based; conditions: 120 h; allogeneic PBMC from 2 donors, 5 days, ELISA; read-out: INF-γ IC50
Experimental: Immature dendritic cells (DC) were prepared as described in Romani, N. et al. (Romani, N. et al. (1996) J. Immunol. Meth. 196:137). IFN-γ production by allogeneic T cell activation in the mixed leukocyte response (MLR) was determined as described in Penna, G., et al., J Immunol., 164: 2405-2411 (2000).
Briefly, peripheral blood mononuclear cells (PBMC) were separated from buffy coats by Ficoll gradient and the same number (3×10^5) of allogeneic PBMC from 2 different donors were co-cultured in 96-well flat-bottom plates. The vitamin D3 compounds were added to each of the cultures.

SMILES	IC50 (ECV; Homo sapiens) [µM]	IC50 (RT112; Homo sapiens, RT-112, 72 h) [µM]	IC50 (HT 1376; Homo sapiens, HT-1376) [µM]	IC50 (RT4; Homo sapiens, RT-4, 72 h) [µM]	IC50 (NHEK; Homo sapiens, NHEK) [µM]	IC50 (Human BPH cells) [µM]	MTD [1] [µg/kg]	MTD at 4 days [2] [µg/kg]	IC50 (IFN-γ production) [pM]	IC50 (ECV) [µM]	IC50 (RT112) [µM]	IC50 (HT 1376) [µM]	IC50 (RT4) [µM]	IC50 (NHEK) [µM]	MTD compared with the corresponding dihydroxy (parent) compound [2]	MTD (mice) ([2]; female C57BL/6 mice, p.o. daily for four days, highest dose without hypercalcemia (serum calcium >10.7 mg/dl)) [µg/kg]
C=C1/C(=C\C=C2/CCC[C@]3(C)C(C(C)C/C=C/C(C)(C)O)=CCC23)CC(OC(C)=O)C[C@@H]1OC(C)=O (stereo partly drawn) [(9), 1,3-Di-O-acetyl-1,25-dihydroxy-16,23E-diene-cholecalciferol]	58.7	14	> 100	82	5.1	0.00912	3	–	–	–	–	–	–	–	–	–
C=C1/C(=C\C=C2/CCC[C@@]3(C)C2CCC3C2(CCCC(C)(C)O)CC2)C[C@@H](OC(C)=O)C[C@@H]1OC(C)=O (stereo partly drawn) [(35), 1,3-Di-O-acetyl-1,25-dihydroxy-20-cyclopropyl-cholecalciferol]	52.1	9	67	10	4.7	1260	30	30	–	–	–	–	–	–	–	–
CCC(O)(C#CCC(C)C1=CCC2/C(=C/C=C3/CC(OC(C)=O)C[C@H](OC(C)=O)C3)CCC[C@]12C)CC (stereo partly drawn) [(22), 1,3-Di-O-acetyl-1,25-dihydroxy-16-ene-23-yne-26,27-bishomo-19-nor-cholecalciferol]	81.7	7	> 100	9	4.7	–	–	100	25.3	–	–	–	–	–	–	–
CC(C/C=C\C(O)(C(F)(F)F)C(F)(F)F)C1=CCC2C(=CC=C3CC(O)CC(O)C3)CCCC12C (stereo not drawn) [(1), 1,25-dihydroxy-16,23Z-diene-26,27-hexafluoro-19-nor-cholecalciferol, reference compound]	–	–	–	–	–	–	–	–	–	58.7	24	56	20	4.4	–	–
CC(=O)OC1C/C(=C/C=C2\CCC[C@]3(C)C(C4(CCCC(C)(C)O)CC4)=CCC23)C[C@@H](OC(C)=O)C1 (stereo partly drawn) [(37), 1,3-Di-O-acetyl-1α,25-dihydroxy-16-ene-20-cyclopropyl-19-nor-cholecalciferol]	–	17.4	–	3	–	–	–	10	68	–	–	–	–	–	–	–
CC(=O)OC1C/C(=C/C=C2\CCC[C@]3(C)C(C(C)CC#CC(O)(C(F)(F)F)C(F)(F)F)=CCC23)C[C@@H](OC(C)=O)C1 (stereo partly drawn) [(4), 1,3-Di-O-acetyl-1,25-Dihydroxy-16-ene-23-yne-26,27-hexafluoro-19-nor-cholecalciferol]	29	15	> 100	9	0.8	–	–	10	525	–	–	–	–	–	significantly higher; also recorded: considerably greater	–
CC(=O)OC1C/C(=C/C=C2\CCC[C@]3(C)C(C(C)CC#CC(OC(C)=O)(C(F)(F)F)C(F)(F)F)=CCC23)C[C@@H](OC(C)=O)C1 (stereo partly drawn) [(5), 1,3,25-Tri-O-acetyl-1,25-Dihydroxy-16-ene-23-yne-26,27-hexafluoro-19-nor-cholecalciferol]	32	13	> 100	7	25.6	–	–	3	499	–	–	–	–	–	significantly higher; also recorded: considerably greater	–
CC(=O)OC1C/C(=C/C=C2\CCC[C@@]3(C)C2CCC3C2(C/C=C\C(O)(C(F)(F)F)C(F)(F)F)CC2)C[C@@H](OC(C)=O)C1 (stereo partly drawn) [(33), 1,3-Di-O-acetyl-1,25-dihydroxy-20-cyclopropyl-23Z-ene-26,27-hexafluoro-19-nor-cholecalciferol]	> 100	16	> 100	18	0.9	–	–	–	–	–	–	–	–	–	–	–
C=C1/C(=C\C=C2/CCC[C@]3(C)C(C4(CCCC(C)(C)O)CC4)=CCC23)CC(OC(C)=O)C[C@@H]1OC(C)=O (stereo partly drawn) [(39), 1,3-Di-O-acetyl-1α,25-hydroxy-16-ene-20-cyclopropyl-cholecalciferol]	–	21.5	–	2.8	–	–	–	3	45	–	–	–	–	–	–	–
C=C1/C(=C\C=C2/CCC[C@]3(C)C(C(C)CCCC(C)(C)O)=CCC23)CC(OC(C)=O)C[C@@H]1OC(C)=O (stereo partly drawn) [(11), 1,3-Di-O-acetyl-1,25-dihydroxy-16-ene-cholecalciferol]	59.9	18	> 100	75	5	0.000759	1	–	–	–	–	–	–	–	–	–
CC(=O)OC1C/C(=C/C=C2\CCC[C@@]3(C)C2CCC3C2(C/C=C/C(O)(C(F)(F)F)C(F)(F)F)CC2)C[C@@H](OC(C)=O)C1 (stereo partly drawn) [(31), 1,3-Di-O-acetyl-1,25-dihydroxy-20-cyclopropyl-23E-ene-26,27-hexafluoro-19-nor-cholecalciferol]	24.3	7	68	9	0.9	–	–	0.3	–	–	–	–	–	–	–	–
CC(=O)OC1C/C(=C/C=C2\CCC[C@@]3(C)C2CCC3C2(CC#CC(C)(C)O)CC2)C[C@@H](OC(C)=O)C1 (stereo partly drawn) [(24), 1,3-Di-O-acetyl-1,25-dihydroxy-20-cyclopropyl-23-yne-19-nor-cholecalciferol]	21.5	18	> 100	7	6.8	–	–	–	–	–	–	–	–	–	–	–
CC(=O)OC1C/C(=C/C=C2\CCC[C@]3(C)C(C(C)CCCC(C)(C)O)=CCC23)C[C@@H](OC(C)=O)C1 (stereo partly drawn) [(18), 1,3-Di-O-acetyl-1,25-dihydroxy-16-ene-19-nor-cholecalciferol]	27.9	1	96	8	5.8	2.24e-05	3	–	–	–	–	–	–	–	–	–
CC(=O)OC1C/C(=C/C=C2\CCC[C@]3(C)C(C(C)CC#CC(C)(C)O)=CCC23)C[C@@H](OC(C)=O)C1 (stereo partly drawn) [(20), 1,3-Di-O-Acetyl-1,25-dihydroxy-16-ene-23-yne-19-nor-cholecalciferol]	26.7	1	> 100	9	6.7	–	30	–	–	–	–	–	–	–	–	–
C=C1/C(=C\C=C2/CCC[C@]3(C)C(C(C)CC#CC(OC(C)=O)(C(F)(F)F)C(F)(F)F)=CCC23)CC(OC(C)=O)C[C@@H]1OC(C)=O (stereo partly drawn) [(13), 1,3,25-Tri-O-acetyl-1,25-dihydroxy-16-ene-23-yne-26,27-hexafluoro-cholecalciferol]	> 100	17	–	95	19.5	–	–	3	40.1	–	–	–	–	–	–	–
CC(CC#CC(O)(C(F)(F)F)C(F)(F)F)C1=CCC2C(=CC=C3CC(O)CC(O)C3)CCCC12C (stereo not drawn) [(3), 1,25-dihydroxy-16-ene-23-yne-26,27-hexafluoro-19-nor-cholecalciferol, reference compound]	–	–	–	–	–	–	–	–	–	–	–	–	–	–	–	0.3
C=C1/C(=C\C=C2/CCC[C@]3(C)C(C(C)C/C=C/[C@@](C)(O)C(F)(F)F)=CCC23)CC(OC(C)=O)C[C@@H]1OC(C)=O (stereo partly drawn) [(16), 1,3-Di-O-acetyl-1,25-dihydroxy-16,23E-diene-25R,26-trifluoro-cholecalciferol]	76.6	2	> 100	16	3.1	–	–	–	–	–	–	–	–	–	–	–
